Measurements from PubChem BioAssay (NCI).
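48-hour exposure; five concentrations; linearly interpolated endpoints. GI50: concentration for 50% inhibition of growth. TGI is the concentration that stops growth completely.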

Legend:
Assay in all cases: NCI anticancer screen, dose series, 48 h
HL-60(TB) leukemia = test system: HL-60(TB) leukemia
IGROV1 ovarian = test system: IGROV1 ovarian
UACC-62 melanoma = test system: UACC-62 melanoma
CAKI-1 renal = test system: CAKI-1 renal
SF-539 CNS = test system: SF-539 CNS
TK-10 renal = test system: TK-10 renal
SNB-78 CNS = test system: SNB-78 CNS
786-0 renal = test system: 786-0 renal
RPMI-8226 leukemia = test system: RPMI-8226 leukemia
SR leukemia = test system: SR leukemia
SK-MEL-28 melanoma = test system: SK-MEL-28 melanoma
A498 renal = test system: A498 renal
SK-MEL-5 melanoma = test system: SK-MEL-5 melanoma
HOP-18 NSCLC = test system: HOP-18 NSCLC
SW-620 colon = test system: SW-620 colon
UACC-257 melanoma = test system: UACC-257 melanoma
M19-MEL melanoma = test system: M19-MEL melanoma
NCI-H522 lung = test system: NCI-H522 lung
MOLT-4 leukemia = test system: MOLT-4 leukemia
SNB-19 CNS = test system: SNB-19 CNS
M14 melanoma = test system: M14 melanoma
HOP-62 NSCLC = test system: HOP-62 NSCLC
ACHN renal = test system: ACHN renal
OVCAR-4 ovarian = test system: OVCAR-4 ovarian
A549 NSCLC = test system: A549 NSCLC
K-562 leukemia = test system: K-562 leukemia
CCRF-CEM leukemia = test system: CCRF-CEM leukemia
DMS 273 small cell lung = test system: DMS 273 small cell lung
SNB-75 CNS = test system: SNB-75 CNS
HOP-92 NSCLC = test system: HOP-92 NSCLC
DLD-1 colon = test system: DLD-1 colon
UO-31 renal = test system: UO-31 renal
HCT-116 colon = test system: HCT-116 colon
MALME-3M melanoma = test system: MALME-3M melanoma
NCI-H23 lung = test system: NCI-H23 lung
SN12C renal = test system: SN12C renal
OVCAR-3 ovarian = test system: OVCAR-3 ovarian
OVCAR-8 ovarian = test system: OVCAR-8 ovarian
U251 CNS = test system: U251 CNS
SF-295 CNS = test system: SF-295 CNS
HCC-2998 colon = test system: HCC-2998 colon
RXF 393 renal = test system: RXF 393 renal
KM12 colon = test system: KM12 colon
LXFL 529 NSCLC = test system: LXFL 529 NSCLC
HT29 colon = test system: HT29 colon
OVCAR-5 ovarian = test system: OVCAR-5 ovarian
NCI-H460 lung = test system: NCI-H460 lung
HCT-15 colon = test system: HCT-15 colon
SK-MEL-2 melanoma = test system: SK-MEL-2 melanoma
SK-OV-3 ovarian = test system: SK-OV-3 ovarian
LOX IMVI melanoma = test system: LOX IMVI melanoma
KM20L2 colon = test system: KM20L2 colon
EKVX NSCLC = test system: EKVX NSCLC
COLO 205 colon = test system: COLO 205 colon
SF-268 CNS = test system: SF-268 CNS
NCI-H226 lung = test system: NCI-H226 lung
DMS 114 small cell lung = test system: DMS 114 small cell lung

O=C1C(C(Nc2ccccc2)c2ccccc2)=C([O-])c2ccccc21.O=C1C(C(Nc2ccccc2)c2ccccc2)=C([O-])c2ccccc21.[Co+2] (centres undefined)
GI50 (HL-60(TB) leukemia): 3.72 µM
TGI (HL-60(TB) leukemia): > 100 µM
GI50 (IGROV1 ovarian): 5.6 µM
TGI (IGROV1 ovarian): > 100 µM
GI50 (UACC-62 melanoma): 5.45 µM
TGI (UACC-62 melanoma): > 100 µM
GI50 (CAKI-1 renal): 18.7 µM
TGI (CAKI-1 renal): > 100 µM
GI50 (SF-539 CNS): 3.3 µM
TGI (SF-539 CNS): > 100 µM
GI50 (TK-10 renal): 5.48 µM
TGI (TK-10 renal): 86 µM
GI50 (SNB-78 CNS): > 100 µM
TGI (SNB-78 CNS): > 100 µM
GI50 (786-0 renal): 7.11 µM
TGI (786-0 renal): > 100 µM
GI50 (RPMI-8226 leukemia): 2.8 µM
TGI (RPMI-8226 leukemia): > 100 µM
GI50 (SR leukemia): 6.07 µM
TGI (SR leukemia): > 100 µM
GI50 (SK-MEL-28 melanoma): 5.55 µM
TGI (SK-MEL-28 melanoma): > 100 µM
GI50 (A498 renal): 5.13 µM
TGI (A498 renal): > 100 µM
GI50 (SK-MEL-5 melanoma): 3.78 µM
TGI (SK-MEL-5 melanoma): > 100 µM
GI50 (HOP-18 NSCLC): 11.5 µM
TGI (HOP-18 NSCLC): > 100 µM
GI50 (SW-620 colon): 4.75 µM
TGI (SW-620 colon): > 100 µM
GI50 (UACC-257 melanoma): 5.04 µM
TGI (UACC-257 melanoma): 46.4 µM
GI50 (M19-MEL melanoma): 15.2 µM
TGI (M19-MEL melanoma): > 100 µM
GI50 (NCI-H522 lung): 2.31 µM
TGI (NCI-H522 lung): 5.43 µM
GI50 (MOLT-4 leukemia): 4.04 µM
TGI (MOLT-4 leukemia): > 100 µM
GI50 (SNB-19 CNS): > 100 µM
TGI (SNB-19 CNS): > 100 µM
GI50 (M14 melanoma): 3.86 µM
TGI (M14 melanoma): > 100 µM
GI50 (HOP-62 NSCLC): > 100 µM
TGI (HOP-62 NSCLC): > 100 µM
GI50 (ACHN renal): 6.62 µM
TGI (ACHN renal): > 100 µM
GI50 (OVCAR-4 ovarian): 3.38 µM
TGI (OVCAR-4 ovarian): 9.92 µM
GI50 (A549 NSCLC): 4.2 µM
TGI (A549 NSCLC): > 100 µM
GI50 (K-562 leukemia): 3.2 µM
TGI (K-562 leukemia): > 100 µM
GI50 (CCRF-CEM leukemia): 4.96 µM
TGI (CCRF-CEM leukemia): > 100 µM
GI50 (DMS 273 small cell lung): 4.08 µM
TGI (DMS 273 small cell lung): > 100 µM
GI50 (SNB-75 CNS): 4.49 µM
TGI (SNB-75 CNS): 79.8 µM
GI50 (HOP-92 NSCLC): 6.92 µM
TGI (HOP-92 NSCLC): > 100 µM
GI50 (DLD-1 colon): 4.02 µM
TGI (DLD-1 colon): > 100 µM
GI50 (UO-31 renal): 2.69 µM
TGI (UO-31 renal): 53.8 µM
GI50 (HCT-116 colon): 3.15 µM
TGI (HCT-116 colon): > 100 µM
GI50 (MALME-3M melanoma): 5.48 µM
TGI (MALME-3M melanoma): > 100 µM
GI50 (NCI-H23 lung): 4.3 µM
TGI (NCI-H23 lung): > 100 µM

COC1CC(OC)C2OC(c3ccccc3)OCC2O1 (centres undefined)
TGI (HL-60(TB) leukemia): > 100 µM
TGI (IGROV1 ovarian): > 100 µM
TGI (UACC-62 melanoma): > 100 µM
TGI (SN12C renal): > 100 µM
TGI (SF-539 CNS): > 100 µM
TGI (OVCAR-3 ovarian): > 100 µM
TGI (TK-10 renal): > 100 µM
TGI (SNB-78 CNS): > 100 µM
TGI (786-0 renal): > 100 µM
TGI (OVCAR-8 ovarian): > 100 µM
TGI (SR leukemia): > 100 µM
TGI (SK-MEL-28 melanoma): > 100 µM
TGI (SK-MEL-5 melanoma): > 100 µM
TGI (HOP-18 NSCLC): > 100 µM
TGI (SW-620 colon): > 100 µM
TGI (U251 CNS): > 100 µM
TGI (SF-295 CNS): > 100 µM
TGI (HCC-2998 colon): > 100 µM
TGI (UACC-257 melanoma): > 100 µM
TGI (M19-MEL melanoma): > 100 µM
TGI (NCI-H522 lung): > 100 µM
TGI (RXF 393 renal): > 100 µM
TGI (KM12 colon): > 100 µM
TGI (MOLT-4 leukemia): > 100 µM
TGI (LXFL 529 NSCLC): > 100 µM
TGI (HT29 colon): > 100 µM
TGI (M14 melanoma): > 100 µM
TGI (HOP-62 NSCLC): > 100 µM
TGI (ACHN renal): > 100 µM
TGI (OVCAR-5 ovarian): > 100 µM
TGI (NCI-H460 lung): > 100 µM
TGI (A549 NSCLC): > 100 µM
TGI (HCT-15 colon): > 100 µM
TGI (K-562 leukemia): > 100 µM
TGI (SK-MEL-2 melanoma): > 100 µM
TGI (CCRF-CEM leukemia): > 100 µM
TGI (SNB-75 CNS): > 100 µM
TGI (DLD-1 colon): > 100 µM
TGI (SK-OV-3 ovarian): > 100 µM
TGI (UO-31 renal): > 100 µM
TGI (LOX IMVI melanoma): > 100 µM
TGI (HCT-116 colon): > 100 µM
TGI (KM20L2 colon): > 100 µM
TGI (MALME-3M melanoma): > 100 µM
TGI (EKVX NSCLC): > 100 µM
TGI (NCI-H23 lung): > 100 µM

CCOC(=O)[C@@]12C(C)=CC(=O)O[C@]1(C)C[C@H]2C#N
TGI (HL-60(TB) leukemia): > 100 µM
TGI (IGROV1 ovarian): > 100 µM
TGI (COLO 205 colon): > 100 µM
TGI (UACC-62 melanoma): > 100 µM
TGI (SN12C renal): > 100 µM
TGI (SF-539 CNS): > 100 µM
TGI (OVCAR-3 ovarian): > 100 µM
TGI (TK-10 renal): > 100 µM
TGI (SNB-78 CNS): > 100 µM
TGI (786-0 renal): > 100 µM
TGI (RPMI-8226 leukemia): > 100 µM
TGI (OVCAR-8 ovarian): > 100 µM
TGI (SK-MEL-28 melanoma): > 100 µM
TGI (A498 renal): > 100 µM
TGI (SK-MEL-5 melanoma): > 100 µM
TGI (HOP-18 NSCLC): > 100 µM
TGI (SW-620 colon): > 100 µM
TGI (U251 CNS): > 100 µM
TGI (SF-295 CNS): > 100 µM
TGI (HCC-2998 colon): > 100 µM
TGI (UACC-257 melanoma): > 100 µM
TGI (M19-MEL melanoma): > 100 µM
TGI (RXF 393 renal): > 100 µM
TGI (KM12 colon): > 100 µM
TGI (MOLT-4 leukemia): > 100 µM
TGI (LXFL 529 NSCLC): > 100 µM
TGI (SF-268 CNS): > 100 µM
TGI (HT29 colon): > 100 µM
TGI (SNB-19 CNS): > 100 µM
TGI (M14 melanoma): > 100 µM
TGI (HOP-62 NSCLC): > 100 µM
TGI (ACHN renal): > 100 µM
TGI (NCI-H226 lung): > 100 µM
TGI (NCI-H460 lung): > 100 µM
TGI (OVCAR-4 ovarian): > 100 µM
TGI (A549 NSCLC): > 100 µM
TGI (HCT-15 colon): > 100 µM
TGI (K-562 leukemia): > 100 µM
TGI (SK-MEL-2 melanoma): > 100 µM
TGI (CCRF-CEM leukemia): > 100 µM
TGI (DMS 273 small cell lung): > 100 µM
TGI (SNB-75 CNS): > 100 µM
TGI (HOP-92 NSCLC): > 100 µM
TGI (DLD-1 colon): > 100 µM
TGI (DMS 114 small cell lung): > 100 µM
TGI (SK-OV-3 ovarian): > 100 µM
TGI (UO-31 renal): > 100 µM
TGI (LOX IMVI melanoma): > 100 µM
TGI (HCT-116 colon): > 100 µM
TGI (KM20L2 colon): > 100 µM
TGI (MALME-3M melanoma): > 100 µM
TGI (EKVX NSCLC): > 100 µM
TGI (NCI-H23 lung): > 100 µM
